Assay results taken from the supplement of paper PMC9013687.
± gives the standard deviation of the averaged measurements.

Key:
Danio rerio embryo [1] = system: Danio rerio embryo
Procedure: (§1)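 Zebrafish embryos (UFZ-OBI strain) were exposed from 2 hpf for 48 h (2 dpf) or 96 h (4 dpf) at 28 °C; spontaneous tail coiling was scored at 25 hpf. Morphological features from automated image analysis (FishInspector), heart rate and locomotor response were fitted with drc models. Quantal endpoints were dichotomised at 2.5 SD from controls and fitted with a log-logistic model; heart rate, pigmentation and STC were normalised to the replicate control mean. Betamethasone was tested as betamethasone dipropionate, diflorasone as diflorasone diacetate.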

Danio rerio embryo [2] = test: EC20 Head trunk angle_Decrease; higher = less potent; details: exposure time: 2 dpf
Procedure: as §1

Danio rerio embryo [3] = test: EC10 Any effect; higher = less potent
Procedure: as §1

Danio rerio embryo [4] = test: EC20 Any effect; higher = less potent
Procedure: as §1

Danio rerio embryo [5] = test: EC50 Eye size_Decrease
Procedure: as §1

Danio rerio embryo [6] = test: spontaneous tail coiling frequency (coils/min/embryo); higher = more spontaneous movement; details: 25 hpf
Procedure: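 Spontaneous tail coilings of zebrafish embryos exposed from 2 hpf were recorded at 24-25 hpf in 1-min videos and detected by a KNIME workflow from grey-value variance. Betamethasone was tested as the dipropionate, diflorasone as the diacetate.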

Danio rerio embryo [7] = test: EC50 Otolith-eye distance_Decrease; details: exposure time: 4 dpf
Procedure: as §1

Danio rerio embryo [8] = test: EC10 Lack of SB; higher = less potent; details: exposure time: 4 dpf
Procedure: as §1

Danio rerio embryo [9] = test: EC10 Eye size_Decrease; higher = less potent
Procedure: as §1

Danio rerio embryo [10] = test: EC50 Pericard size_Increase; details: exposure time: 4 dpf
Procedure: as §1

Danio rerio embryo [11] = test: EC10 Bladder size_Decrease; higher = less potent; details: exposure time: 4 dpf
Procedure: as §1

Danio rerio embryo [12] = test: EC10 Pericard size_Increase; higher = less potent; details: exposure time: 4 dpf
Procedure: as §1

Danio rerio embryo [13] = test: EC10 Curvature_Increase; higher = less potent
Procedure: as §1

Danio rerio embryo [14] = test: EC20 Eye size_Decrease; higher = less potent
Procedure: as §1

Danio rerio embryo [15] = test: EC20 Lack of SB; higher = less potent; details: exposure time: 4 dpf
Procedure: as §1

Danio rerio embryo [16] = test: EC20 Bladder size_Decrease; higher = less potent; details: exposure time: 4 dpf
Procedure: as §1

Danio rerio embryo [17] = test: EC20 Pericard size_Increase; higher = less potent; details: exposure time: 4 dpf
Procedure: as §1

Danio rerio embryo [18] = details: exposure time: 4 dpf
Procedure: as §1

Danio rerio embryo [19] = test: EC10 Head trunk angle_Decrease; higher = less potent; details: exposure time: 2 dpf
Procedure: as §1

Danio rerio embryo [20] = test: EC50 Bladder size_Decrease; details: exposure time: 4 dpf
Procedure: as §1

Danio rerio embryo [21] = test: EC10 Otolith-eye distance_Decrease; higher = less potent; details: exposure time: 4 dpf
Procedure: as §1

Danio rerio embryo [22] = test: EC10 Eye-jaw distance_Decrease; higher = less potent; details: exposure time: 4 dpf
Procedure: as §1

Danio rerio embryo [23] = test: EC50 Curvature_Increase
Procedure: as §1

Danio rerio embryo [24] = test: EC20 Otolith-eye distance_Decrease; higher = less potent; details: exposure time: 4 dpf
Procedure: as §1

Danio rerio embryo [25] = test: EC20 Eye-jaw distance_Decrease; higher = less potent; details: exposure time: 4 dpf
Procedure: as §1

Danio rerio embryo [26] = test: EC50 Eye-jaw distance_Decrease; details: exposure time: 4 dpf
Procedure: as §1

Danio rerio embryo [27] = test: EC20 Body length_Decrease; higher = less potent; details: exposure time: 2 dpf
Procedure: as §1

Danio rerio embryo [28] = test: EC50 Body length_Decrease; details: exposure time: 2 dpf
Procedure: as §1

Danio rerio embryo [29] = test: EC50 Head trunk angle_Decrease; details: exposure time: 2 dpf
Procedure: as §1

Danio rerio embryo [30] = test: EC20 Curvature_Increase; higher = less potent
Procedure: as §1

Danio rerio embryo [31] = test: EC10 Body length_Decrease; higher = less potent; details: exposure time: 2 dpf
Procedure: as §1

COC(=O)Nc1nc2cc(Sc3ccccc3)ccc2[nH]1 [Fenbendazole]
Details | EC10 Any effect [nM] | EC10 Curvature Increase [nM] | EC10 Eye size Decrease [nM] | EC20 Any effect [nM] | EC20 Curvature Increase [nM] | EC20 Eye size Decrease [nM] | EC50 Any effect [nM] | EC50 Curvature Increase [nM] | EC50 Eye size Decrease [nM] | spontaneous tail coiling frequency
Danio rerio embryo [1], exposure time: 2 dpf | – | – | – | – | – | – | 32 | – | – | –
Danio rerio embryo [1], exposure time: 4 dpf | – | – | – | – | – | – | 70 | – | – | –
Danio rerio embryo [3], exposure time: 2 dpf | 14 | – | – | – | – | – | – | – | – | –
Danio rerio embryo [3], exposure time: 4 dpf | 49 | – | – | – | – | – | – | – | – | –
Danio rerio embryo [4], exposure time: 2 dpf | – | – | – | 19 | – | – | – | – | – | –
Danio rerio embryo [4], exposure time: 4 dpf | – | – | – | 56 | – | – | – | – | – | –
Danio rerio embryo [5], exposure time: 2 dpf | – | – | – | – | – | – | – | – | 51 | –
Danio rerio embryo [5], exposure time: 4 dpf | – | – | – | – | – | – | – | – | 82 | –
Danio rerio embryo [6], 0.013 µM | – | – | – | – | – | – | – | – | – | 0.94
Danio rerio embryo [6], 0.017 µM | – | – | – | – | – | – | – | – | – | 2.28
Danio rerio embryo [6], 0.02 µM | – | – | – | – | – | – | – | – | – | 1.96
Danio rerio embryo [6], 0.03 µM | – | – | – | – | – | – | – | – | – | 1.28
Danio rerio embryo [6], 0.0319628 µM | – | – | – | – | – | – | – | – | – | 4.8 ± 2.3
Danio rerio embryo [6], 0.045 µM | – | – | – | – | – | – | – | – | – | 1.58
Danio rerio embryo [6], 0.0477056 µM | – | – | – | – | – | – | – | – | – | 5.09 ± 2.4
Danio rerio embryo [6], 0.048 µM | – | – | – | – | – | – | – | – | – | 2.73
Danio rerio embryo [6], 0.064 µM | – | – | – | – | – | – | – | – | – | 2.5
Danio rerio embryo [6], 0.067 µM | – | – | – | – | – | – | – | – | – | 4.88 ± 1.5
Danio rerio embryo [6], 0.0715584 µM | – | – | – | – | – | – | – | – | – | 6.17
Danio rerio embryo [6], 0.084 µM | – | – | – | – | – | – | – | – | – | 2.72
Danio rerio embryo [6], 0.087 µM | – | – | – | – | – | – | – | – | – | 4.84 ± 1.5
Danio rerio embryo [6], 0.107 µM | – | – | – | – | – | – | – | – | – | 4.95 ± 0.81
Danio rerio embryo [9], exposure time: 2 dpf | – | – | 31 | – | – | – | – | – | – | –
Danio rerio embryo [9], exposure time: 4 dpf | – | – | 64 | – | – | – | – | – | – | –
Danio rerio embryo [13], exposure time: 2 dpf | – | 22 | – | – | – | – | – | – | – | –
Danio rerio embryo [13], exposure time: 4 dpf | – | 62 | – | – | – | – | – | – | – | –
Danio rerio embryo [14], exposure time: 2 dpf | – | – | – | – | – | 37 | – | – | – | –
Danio rerio embryo [14], exposure time: 4 dpf | – | – | – | – | – | 70 | – | – | – | –
Danio rerio embryo [23], exposure time: 2 dpf | – | – | – | – | – | – | – | 38 | – | –
Danio rerio embryo [23], exposure time: 4 dpf | – | – | – | – | – | – | – | 82 | – | –
Danio rerio embryo [30], exposure time: 2 dpf | – | – | – | – | 27 | – | – | – | – | –
Danio rerio embryo [30], exposure time: 4 dpf | – | – | – | – | 68 | – | – | – | – | –

Details | EC10 Bladder size Decrease [nM] | EC10 Body length Decrease [nM] | EC10 Eye-jaw distance Decrease [nM] | EC10 Head trunk angle Decrease [nM] | EC10 Lack of SB [nM] | EC10 Otolith-eye distance Decrease [nM] | EC10 Pericard size Increase [nM] | EC20 Bladder size Decrease [nM] | EC20 Body length Decrease [nM] | EC20 Eye-jaw distance Decrease [nM] | EC20 Head trunk angle Decrease [nM] | EC20 Lack of SB [nM] | EC20 Otolith-eye distance Decrease [nM] | EC20 Pericard size Increase [nM] | EC50 Bladder size Decrease [nM] | EC50 Body length Decrease [nM] | EC50 Eye-jaw distance Decrease [nM] | EC50 Head trunk angle Decrease [nM] | EC50 Lack of SB [nM] | EC50 Otolith-eye distance Decrease [nM] | EC50 Pericard size Increase [nM]
Danio rerio embryo [2] | – | – | – | – | – | – | – | – | – | – | 38 | – | – | – | – | – | – | – | – | – | –
Danio rerio embryo [7] | – | – | – | – | – | – | – | – | – | – | – | – | – | – | – | – | – | – | – | 89 | –
Danio rerio embryo [8] | – | – | – | – | 46 | – | – | – | – | – | – | – | – | – | – | – | – | – | – | – | –
Danio rerio embryo [10] | – | – | – | – | – | – | – | – | – | – | – | – | – | – | – | – | – | – | – | – | 85
Danio rerio embryo [11] | 45 | – | – | – | – | – | – | – | – | – | – | – | – | – | – | – | – | – | – | – | –
Danio rerio embryo [12] | – | – | – | – | – | – | 67 | – | – | – | – | – | – | – | – | – | – | – | – | – | –
Danio rerio embryo [15] | – | – | – | – | – | – | – | – | – | – | – | 47 | – | – | – | – | – | – | – | – | –
Danio rerio embryo [16] | – | – | – | – | – | – | – | 47 | – | – | – | – | – | – | – | – | – | – | – | – | –
Danio rerio embryo [17] | – | – | – | – | – | – | – | – | – | – | – | – | – | 73 | – | – | – | – | – | – | –
Danio rerio embryo [18] | – | – | – | – | – | – | – | – | – | – | – | – | – | – | – | – | – | – | 50 | – | –
Danio rerio embryo [19] | – | – | – | 37 | – | – | – | – | – | – | – | – | – | – | – | – | – | – | – | – | –
Danio rerio embryo [20] | – | – | – | – | – | – | – | – | – | – | – | – | – | – | 49 | – | – | – | – | – | –
Danio rerio embryo [21] | – | – | – | – | – | 70 | – | – | – | – | – | – | – | – | – | – | – | – | – | – | –
Danio rerio embryo [22] | – | – | 53 | – | – | – | – | – | – | – | – | – | – | – | – | – | – | – | – | – | –
Danio rerio embryo [24] | – | – | – | – | – | – | – | – | – | – | – | – | 77 | – | – | – | – | – | – | – | –
Danio rerio embryo [25] | – | – | – | – | – | – | – | – | – | 62 | – | – | – | – | – | – | – | – | – | – | –
Danio rerio embryo [26] | – | – | – | – | – | – | – | – | – | – | – | – | – | – | – | – | 81 | – | – | – | –
Danio rerio embryo [27] | – | – | – | – | – | – | – | – | 35 | – | – | – | – | – | – | – | – | – | – | – | –
Danio rerio embryo [28] | – | – | – | – | – | – | – | – | – | – | – | – | – | – | – | 45 | – | – | – | – | –
Danio rerio embryo [29] | – | – | – | – | – | – | – | – | – | – | – | – | – | – | – | – | – | 41 | – | – | –
Danio rerio embryo [31] | – | 30 | – | – | – | – | – | – | – | – | – | – | – | – | – | – | – | – | – | – | –
